Data published in patent US20100298141A1, “SUBSTITUTED PYRIDINE N-OXIDE HERBICIDES” (E. I. DU PONT DE NEMOURS AND COMPANY, priority 2007, published 2010).

Tests used:
common ragweed = experiment: Test C pre-/postemergence test; assay type: in vivo, Ambrosia elation
Outline: (§1)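 Compounds in a non-phytotoxic solvent with surfactant applied preemergence to seeded pots and, at the same time, postemergence to plants 2–18 cm tall (1- to 4-leaf stage). Paddy tests: pots flooded to 3 cm, compound applied into the water, depth held throughout.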

yellow nutsedge = experiment: Test C pre-/postemergence test; assay type: in vivo, Cyperus esculentus
Outline: as §1

corn = experiment: Test C pre-/postemergence test; assay type: in vivo, Zea mays
Outline: as §1

crabgrass = experiment: Test A pre-/postemergence greenhouse test; assay type: in vivo, Digitaria sanguinalis; details: for Crabgrass, Large plant response rating: 0 to 100 scale
Outline: (§2)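 Seeds sown in a loam soil–sand blend got a preemergence directed soil spray of compound in a non-phytotoxic solvent mixture containing surfactant. Postemergence sprays of the same formulation went at the same time onto plants 2–10 cm tall at the one- to two-leaf stage. Injury was scored visually against untreated controls after about ten days in the greenhouse.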

cocklebur = experiment: Test C pre-/postemergence test; assay type: in vivo, Xanthium strumarium
Outline: as §1

morningglory [1] = experiment: Test C pre-/postemergence test; assay type: in vivo, Ipomoea coccinea
Outline: as §1

soybean = experiment: Test C pre-/postemergence test; assay type: in vivo, Glycine max
Outline: as §1

woolly cupgrass = experiment: Test C pre-/postemergence test; assay type: in vivo, Eriochloa villosa
Outline: as §1

giant foxtail [2] = experiment: Test C pre-/postemergence test; assay type: in vivo, Setaria faberii
Outline: as §1

downy brome = experiment: Test C pre-/postemergence test; assay type: in vivo, Bromus tectorum
Outline: as §1

johnsongrass = experiment: Test C pre-/postemergence test; assay type: in vivo, Sorghum halepense
Outline: as §1

wheat = experiment: Test A pre-/postemergence greenhouse test; assay type: in vivo, Triticum aestivum; details: for Wheat plant response rating: 0 to 100 scale
Outline: as §2

lambsquarters = experiment: Test C pre-/postemergence test; assay type: in vivo, Chenopodium album
Outline: as §1

giant foxtail [3] = experiment: Test A pre-/postemergence greenhouse test; assay type: in vivo, Setaria faberi; details: for Foxtail, Giant plant response rating: 0 to 100 scale
Outline: as §2

Goosegrass = experiment: Test C pre-/postemergence test; assay type: in vivo, Eleusin indica
Outline: as §1

morningglory [4] = experiment: Test A pre-/postemergence greenhouse test; assay type: in vivo, Ipomoea spp.; details: for Morningglory plant response rating: 0 to 100 scale
Outline: as §2

[5] = 31 g ai/ha, Preemergence, scale 0 to 100
[6] = 62 g ai/ha, preemergence, scale 0 (no effect) to 100 (complete control)
[7] = preemergence, 125 g ai/ha, scale 0 (no effect) to 100 (complete control)
[8] = Postemergence, 125 g ai/ha, 0 is no effect, 100 is complete control
[9] = Postemergence, 500 g ai/ha, 0 is no effect, 100 is complete control
[10] = Preemergence, 125 g ai/ha, 0 no effect, 100 complete control
[11] = Preemergence, 500 g ai/ha, 0 to 100 scale where 0 is no effect and 100 is complete control

Question: Which results are given for `Cn1nc(C(F)(F)F)c(CS(=O)(=O)c2cccc[n+]2[O-])c1OC(F)F` [Compound 4]?
Answer: Ragweed plant response rating (common ragweed; [5]): 70; Ragweed plant response rating (common ragweed; [6]): 100; Plant response rating (0 to 100), Ragweed (common ragweed; Preemergence, 250 g ai/ha): 100; Ragweed plant response rating (common ragweed; [7]): 100; Nutsedge, Yellow plant response rating (yellow nutsedge; [5]): 85; Nutsedge, Yellow plant response rating (yellow nutsedge; [6]): 100; Plant response rating (0 to 100), Nutsedge, Yellow (yellow nutsedge; Preemergence, 250 g ai/ha): 100; Nutsedge, Yellow plant response rating (yellow nutsedge; [7]): 100; Corn plant response rating (corn; [5]): 0; Corn plant response rating (corn; [6]): 50; Plant response rating (0 to 100), Corn (corn; Preemergence, 250 g ai/ha): 70; Corn plant response rating (corn; [7]): 55; Crabgrass, Large plant response rating (crabgrass; [8]): 80; Crabgrass, Large plant response rating (crabgrass; [9]): 80; Crabgrass, Large plant response rating (crabgrass; [10]): 100; Plant response rating, Crabgrass, Large (crabgrass; [11]): 100; Cocklebur plant response rating (cocklebur; [5]): 0; Cocklebur plant response rating (cocklebur; [6]): 0; Plant response rating (0 to 100), Cocklebur (cocklebur; Preemergence, 250 g ai/ha): 0; Cocklebur plant response rating (cocklebur; [7]): 0; Morningglory plant response rating (morningglory [1]; [5]): 0; Morningglory plant response rating (morningglory [1]; [6]): 0; Plant response rating (0 to 100), Morningglory (morningglory [1]; Preemergence, 250 g ai/ha): 100; Morningglory plant response rating (morningglory [1]; [7]): 85; Soybean plant response rating (soybean; [5]): 0; Soybean plant response rating (soybean; [7]): 0; Cupgrass, Woolly plant response rating (woolly cupgrass; [5]): 60; Cupgrass, Woolly plant response rating (woolly cupgrass; [6]): 98; Plant response rating (0 to 100), Cupgrass, Woolly (woolly cupgrass; Preemergence, 250 g ai/ha): 100; Cupgrass, Woolly plant response rating (woolly cupgrass; [7]): 98; Foxtail, Giant plant response rating (giant foxtail [2]; [5]): 90; Foxtail, Giant plant response rating (giant foxtail [2]; [6]): 100; Plant response rating (0 to 100), Foxtail, Giant (giant foxtail [2]; Preemergence, 250 g ai/ha): 100; Foxtail, Giant plant response rating (giant foxtail [2]; [7]): 100; Bromegrass, Downy plant response rating (downy brome; [5]): 0; Bromegrass, Downy plant response rating (downy brome; [6]): 0; Plant response rating (0 to 100), Bromegrass, Downy (downy brome; Preemergence, 250 g ai/ha): 70; Bromegrass, Downy plant response rating (downy brome; [7]): 0; Johnsongrass plant response rating (johnsongrass; [5]): 95; Johnsongrass plant response rating (johnsongrass; [6]): 95; Plant response rating (0 to 100), Johnsongrass (johnsongrass; Preemergence, 250 g ai/ha): 100; Johnsongrass plant response rating (johnsongrass; [7]): 100; Wheat plant response rating (wheat; [8]): 60; Wheat plant response rating (wheat; [9]): 60; Wheat plant response rating (wheat; [10]): 50; Plant response rating, Wheat (wheat; [11]): 80; Lambsquarters plant response rating (lambsquarters; [5]): 0; Lambsquarters plant response rating (lambsquarters; [6]): 50; Plant response rating (0 to 100), Lambsquarters (lambsquarters; Preemergence, 250 g ai/ha): 100; Lambsquarters plant response rating (lambsquarters; [7]): 80; Foxtail, Giant plant response rating (giant foxtail [3]; [8]): 80; Foxtail, Giant plant response rating (giant foxtail [3]; [9]): 90; Foxtail, Giant plant response rating (giant foxtail [3]; [10]): 100; Plant response rating, Foxtail, Giant (giant foxtail [3]; [11]): 100; Goosegrass plant response rating (Goosegrass; [5]): 100; Goosegrass plant response rating (Goosegrass; [6]): 100; Plant response rating (0 to 100), Goosegrass (Goosegrass; Preemergence, 250 g ai/ha): 100; Goosegrass plant response rating (Goosegrass; [7]): 100; Morningglory plant response rating (morningglory [4]; [8]): 60; Morningglory plant response rating (morningglory [4]; [9]): 70; Morningglory plant response rating (morningglory [4]; [10]): 80; Plant response rating, Morningglory (morningglory [4]; [11]): 90
